Data taken from patent US6355799B1, “Substituted benzene compounds, process for their preparation, and herbicidal and defoliant compositions containing them” (ISK Americas Incorporated, priority 1997, dated 2002).

Assays:
Type in all cases: in vivo
[1] = test system: field corn (Zea mays L., var. Dekalb 535, CORN); assay: Pre-emerge test, crop safety; settings: pre-emerge, rated 14 days after application, 0 = no damage, 100 = complete death
Procedure, shortened: (§1)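 Compounds in acetone were track-sprayed at 15-1000 g ai/ha (187 l/ha) on sandy loam pots: pre-emerge one day after seeding, post-emerge at 2-3 leaf stage with 0.25% v/v non-ionic surfactant. Phytotoxicity was rated 14 days later on a 0 (no damage) to 100 (complete death) scale.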

[2] = test system: upland rice (Oryza sp., var. Tebonnet, RICE); assay: Pre-emerge test, crop safety; settings: pre-emerge, rated 14 days after application, 0 = no damage, 100 = complete death
Procedure, shortened: as §1

[3] = test system: redroot pigweed (Amaranthus retroflexus, AMARE); assay: Pre-emerge test, greenhouse herbicide activity screening; settings: pre-emerge, rated 14 days after application, 0 = no damage, 100 = complete death
Procedure, shortened: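 Compounds in acetone were track-sprayed at 187 l/ha, 15–1000 g ai/ha, onto sandy loam pots. Pre-emerge seeds were sown one day before spraying, with surface watering afterwards. Post-emerge plants were at the 2–3 leaf stage and sprayed with 0.25% v/v non-ionic surfactant. Injury was rated 0–100 at 14 days.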

[4] = test system: lambsquarters (Chenopodium album, CHEAL); assay: Post-emerge test, greenhouse herbicide activity screening; settings: phytotoxicity rating 0-100 (0 no damage, 100 complete death), 14 days after application
Procedure, shortened: (§2)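 Compounds in acetone were track-sprayed at 15–1000 g ai/ha: pre-emergence onto soil sown the previous day, then top-watered to incorporate and later bottom-watered; post-emergence onto 2–3 leaf plants with 0.25% v/v surfactant, bottom-watered only. Ratings on a 0–100 phytotoxicity scale were taken at day 14.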

[5] = test system: green foxtail (Setaria viridis, SETVI); assay: as above; settings: phytotoxicity rating 0-100 (0 no damage, 100 complete death), 14 days after application
Procedure, shortened: as §2

[6] = test system: sicklepod (Cassia obtusifolia, CASOB); assay: as above; settings: phytotoxicity rating 0-100 (0 no damage, 100 complete death), 14 days after application
Procedure, shortened: as §2

[7] = test system: redroot pigweed (Amaranthus retroflexus, AMARE); assay: as above; settings: phytotoxicity rating 0-100 (0 no damage, 100 complete death), 14 days after application
Procedure, shortened: as §2

[8] = test system: barnyardgrass (Echinochloa crus-galli, ECHCG); assay: as above; settings: phytotoxicity rating 0-100 (0 no damage, 100 complete death), 14 days after application
Procedure, shortened: as §2

[9] = test system: velvetleaf (Abutilon theophrasti, ABUTH); assay: as above; settings: phytotoxicity rating 0-100 (0 no damage, 100 complete death), 14 days after application
Procedure, shortened: as §2

[10] = test system: ivyleaf morningglory (Ipomoea hederacea, IPOHE); assay: as above; settings: phytotoxicity rating 0-100 (0 no damage, 100 complete death), 14 days after application
Procedure, shortened: as §2

[11] = test system: johnsongrass (Sorghum halepense, SORHA); assay: as above; settings: phytotoxicity rating 0-100 (0 no damage, 100 complete death), 14 days after application
Procedure, shortened: as §2

[12] = test system: large crabgrass (Digitaria sanguinalis, DIGSA); assay: as above; settings: phytotoxicity rating 0-100 (0 no damage, 100 complete death), 14 days after application
Procedure, shortened: as §2

[13] = test system: field corn (Zea mays L., var. Dekalb 535, CORN); assay: Post-emerge test, crop safety; settings: phytotoxicity rating 0-100 (0 no damage, 100 complete death), 14 days after application
Procedure, shortened: (§3)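 Applied at 15–1000 g ai/ha from acetone in 187 l/ha spray volume. Post-emergence applications included 0.25% v/v non-ionic surfactant and reached plants sown 8–21 days before. Pre-emergence applications were incorporated by surface watering. Efficacy or crop damage was rated on a 0–100 scale after 14 days.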

[14] = test system: upland rice (Oryza sp., var. Tebonnet, RICE); assay: Post-emerge test, crop safety; settings: phytotoxicity rating 0-100 (0 no damage, 100 complete death), 14 days after application
Procedure, shortened: as §3

[15] = test system: lambsquarters (Chenopodium album, CHEAL); assay: Pre-emerge test, greenhouse herbicide activity screening; settings: pre-emerge, rated 14 days after application, 0 = no damage, 100 = complete death
Procedure, shortened: as §3

[16] = test system: green foxtail (Setaria viridis, SETVI); assay: as above; settings: pre-emerge, rated 14 days after application, 0 = no damage, 100 = complete death
Procedure, shortened: as §3

[17] = test system: sicklepod (Cassia obtusifolia, CASOB); assay: as above; settings: pre-emerge, rated 14 days after application, 0 = no damage, 100 = complete death
Procedure, shortened: as §3

[18] = test system: barnyardgrass (Echinochloa crus-galli, ECHCG); assay: as above; settings: pre-emerge, rated 14 days after application, 0 = no damage, 100 = complete death
Procedure, shortened: as §3

[19] = test system: velvetleaf (Abutilon theophrasti, ABUTH); assay: as above; settings: pre-emerge, rated 14 days after application, 0 = no damage, 100 = complete death
Procedure, shortened: as §3

[20] = test system: ivyleaf morningglory (Ipomoea hederacea, IPOHE); assay: as above; settings: pre-emerge, rated 14 days after application, 0 = no damage, 100 = complete death
Procedure, shortened: as §3

[21] = test system: johnsongrass (Sorghum halepense, SORHA); assay: as above; settings: pre-emerge, rated 14 days after application, 0 = no damage, 100 = complete death
Procedure, shortened: as §3

[22] = test system: large crabgrass (Digitaria sanguinalis, DIGSA); assay: as above; settings: pre-emerge, rated 14 days after application, 0 = no damage, 100 = complete death
Procedure, shortened: as §3

CCOC(=O)C(C)Oc1c(Cl)cc(F)c(-n2c(=O)cc(C(F)(F)F)n(C)c2=O)c1N (centres unmarked) [Compound 1-60]
Pre-emerge crop damage CORN (phytotoxicity rating, scale 0-100) ([1]; 63 g ai/ha): 50 | Pre-emerge crop damage CORN (phytotoxicity rating, scale 0-100) ([1]; 250 g ai/ha): 95 | Pre-emerge crop damage RICE (phytotoxicity rating, scale 0-100) ([2]; 63 g ai/ha): 40 | Pre-emerge crop damage RICE (phytotoxicity rating, scale 0-100) ([2]; 250 g ai/ha): 95 | Pre-emerge Herbicidal Activity AMARE (phytotoxicity rating, scale 0-100) ([3]; 63 g ai/ha): 100 | Pre-emerge Herbicidal Activity AMARE (phytotoxicity rating, scale 0-100) ([3]; 250 g ai/ha): 100 | Post-emerge Herbicidal Activity CHEAL ([4]; 63 g ai/ha): 99 | Post-emerge Herbicidal Activity CHEAL ([4]; 250 g ai/ha): 100 | Post-emerge Herbicidal Activity SETVI ([5]; 63 g ai/ha): 0 | Post-emerge Herbicidal Activity SETVI ([5]; 250 g ai/ha): 10 | Post-emerge Herbicidal Activity CASOB ([6]; 63 g ai/ha): 50 | Post-emerge Herbicidal Activity CASOB ([6]; 250 g ai/ha): 90 | Post-emerge Herbicidal Activity AMARE ([7]; 63 g ai/ha): 90 | Post-emerge Herbicidal Activity AMARE ([7]; 250 g ai/ha): 100 | Post-emerge Herbicidal Activity ECHCG ([8]; 63 g ai/ha): 0 | Post-emerge Herbicidal Activity ECHCG ([8]; 250 g ai/ha): 20 | Post-emerge Herbicidal Activity ABUTH ([9]; 63 g ai/ha): 100 | Post-emerge Herbicidal Activity ABUTH ([9]; 250 g ai/ha): 100 | Post-emerge Herbicidal Activity IPOHE ([10]; 63 g ai/ha): 90 | Post-emerge Herbicidal Activity IPOHE ([10]; 250 g ai/ha): 100 | Post-emerge Herbicidal Activity SORHA ([11]; 63 g ai/ha): 0 | Post-emerge Herbicidal Activity SORHA ([11]; 250 g ai/ha): 20 | Post-emerge Herbicidal Activity DIGSA ([12]; 63 g ai/ha): 0 | Post-emerge Herbicidal Activity DIGSA ([12]; 250 g ai/ha): 50 | Post-emerge Herbicidal Activity CORN (crop damage) ([13]; 63 g ai/ha): 0 | Post-emerge Herbicidal Activity CORN (crop damage) ([13]; 250 g ai/ha): 50 | Post-emerge Herbicidal Activity RICE (crop damage) ([14]; 63 g ai/ha): 10 | Post-emerge Herbicidal Activity RICE (crop damage) ([14]; 250 g ai/ha): 40 | Pre-emerge Herbicidal Activity CHEAL (phytotoxicity rating, scale 0-100) ([15]; 63 g ai/ha): 100 | Pre-emerge Herbicidal Activity CHEAL (phytotoxicity rating, scale 0-100) ([15]; 250 g ai/ha): 100 | Pre-emerge Herbicidal Activity SETVI (phytotoxicity rating, scale 0-100) ([16]; 63 g ai/ha): 95 | Pre-emerge Herbicidal Activity SETVI (phytotoxicity rating, scale 0-100) ([16]; 250 g ai/ha): 100 | Pre-emerge Herbicidal Activity CASOB (phytotoxicity rating, scale 0-100) ([17]; 63 g ai/ha): 70 | Pre-emerge Herbicidal Activity CASOB (phytotoxicity rating, scale 0-100) ([17]; 250 g ai/ha): 100 | Pre-emerge Herbicidal Activity ECHCG (phytotoxicity rating, scale 0-100) ([18]; 63 g ai/ha): 50 | Pre-emerge Herbicidal Activity ECHCG (phytotoxicity rating, scale 0-100) ([18]; 250 g ai/ha): 95 | Pre-emerge Herbicidal Activity ABUTH (phytotoxicity rating, scale 0-100) ([19]; 63 g ai/ha): 100 | Pre-emerge Herbicidal Activity ABUTH (phytotoxicity rating, scale 0-100) ([19]; 250 g ai/ha): 100 | Pre-emerge Herbicidal Activity IPOHE (phytotoxicity rating, scale 0-100) ([20]; 63 g ai/ha): 90 | Pre-emerge Herbicidal Activity IPOHE (phytotoxicity rating, scale 0-100) ([20]; 250 g ai/ha): 100 | Pre-emerge Herbicidal Activity SORHA (phytotoxicity rating, scale 0-100) ([21]; 63 g ai/ha): 80 | Pre-emerge Herbicidal Activity SORHA (phytotoxicity rating, scale 0-100) ([21]; 250 g ai/ha): 100 | Pre-emerge Herbicidal Activity DIGSA (phytotoxicity rating, scale 0-100) ([22]; 63 g ai/ha): 95 | Pre-emerge Herbicidal Activity DIGSA (phytotoxicity rating, scale 0-100) ([22]; 250 g ai/ha): 100
